In brackets after ≈: the same amount, converted by molar mass. A value given as a limit tells only on which side of the number the result lay.

Data set [1] relates to human three-dimensional skin equivalent. The data set can be described thus: Cell survival rate in human three-dimensional skin equivalent (Cell Count Reagent SF). Type of data set: cell-based. The settings on record: for Cell Survival Rate (Relative Value): 15 days culture, control (PBS) = 1. As to the method:
(§1) The effect of inhibiting melanin production in human three-dimensional skin was examined. Human three-dimensional skin equivalent manufactured by MatTek Corp. was purchased and pre-cultured for 1 hour with the dedicated culture medium, EPI-100LLMM, available from the same manufacturer.
(§2) Following pre-culturing, orotic acid-glutamic acid dissolved in phosphate-buffered saline (PBS) was added to the skin surface at a final concentration of 0.2% (w/v), 0.5% (w/v) or 1.0% (w/v), or orotic acid was added to the skin surface at a final concentration of 0.5% (w/v), followed by culturing for 15 days. The cell survival rates of the human three-dimensional skin equivalent following addition of orotic acid or orotic acid-glutamic acid were measured using the Cell Count Reagent SF manufactured by Nacalai-Tesque, Inc. After culturing, the skin was transferred to medium containing 1% Cell Count Reagent SF and after culturing for 3 hours, absorbance was measured at […]. Cell survival rates were calculated as the measured value based on a value of 1 for the control.

The test system of data set [2] is Normal human fibroblasts (NB1RGB cells). The data set can be described thus: Elastin production in normal human fibroblasts (elastin assay kit). Type of data set: cell-based. The settings on record: 48 hours, control = 1.00. As to the method:
Normal human fibroblasts in the form of NB1RGB cells (purchased from the Bioresource Center of Riken Japan) were seeded at a seeding density of about 10,000 cells/cm^2 and cultured for 24 hours in DMEM medium containing 10% (w/v) fetal calf serum. An orotic acid derivative according to the present invention dissolved in pure water to a final concentration of 0 μM (control), 0.1 μM, 1 μM, 10 μM or 100 μM or orotic acid dissolved in purified water to a final concentration of 100 μM was added to DMEM medium containing 10% (w/v) fetal calf serum followed by culturing for 48 hours. The cells were subsequently recovered, the elastin was extracted with an elastin assay kit manufactured by Biocolor Ltd., and absorbance of the extract was measured at a wavelength of 513 nm.

Data set [3] concerns human three-dimensional skin equivalent. The experiment in a line: Melanin production inhibition in human three-dimensional skin equivalent. Type of data set: cell-based. To be noted: for Melanin Production Rate (relative value): 15 days culture, per cell, control (PBS) = 1. Here is the method: as §1, §2
After measuring cell survival rates in Experimental Example 2, the skin was thoroughly rinsed with PBS followed by sampling the skin and recovering in a 1.5 mL microtube. 150 μL of a dissolving solution containing sodium dodecyl sulfate (1% (w/v)), 0.05 mM ethylenediaminetetraacetate and 10 mM Tris-HCl (pH 6.8) were added thereto. After stirring, 3 μL of 5 mg/mL protease K were added followed by dissolving for 6 hours at 45° C., adding 25 μL of 500 mM […] and 5 μL of 30% aqueous hydrogen peroxide and further treating for 30 minutes at 80° C. After allowing the sample to cool to room temperature, 20 μL of a 2:1 solution of chloroform and methanol were added to the sample followed by centrifuging for 10 minutes at the highest rotating speed of the centrifuge. 80 μL aliquots of the sample supernatant were recovered onto microplates followed by measurement of absorbance at 405 nm. Melanin production rate was determined by calculating the extinction coefficient of each sample based on a value of 1 for the control and dividing that value by the cell survival rate determined in Example 2 to calculate the melanin production rate per cell.

Data set [4] in a line: Effect of pH on water solubility (saturated concentration by HPLC).
Method: (§3) Subsequently, the pH of the remaining sample solution was adjusted using 1.0 N or 0.05 N aqueous sodium hydroxide solution, and in the case all of the sample had dissolved in the solution, sample was further added followed by stirring for 15 hours at room temperature (22° C.±2° C.) so that some of the sample was left undissolved and 1 mL of supernatant was similarly collected. Supernatant was repeatedly collected while adjusting the pH as necessary to obtain samples.
(§4) The resulting samples were filtered with a membrane filter having a pore size of 22 μm followed by subjecting the resulting filtrate to high-performance liquid chromatography (HPLC).
(§5) HPLC analyses were carried out using the LC Solution and PDA detector (CBM-20A) manufactured by Shimadzu Corp. and the Shodex RSpak DM-614 column at a column temperature of 40° C. and flow rate of 0.8 ml/min while using 0.02% H3PO4 for the mobile phase.
(§6) The concentration of each sample dissolved in solution was calculated from the area of the peak that coincided with each sample in the resulting analysis data.
For data set [5] the following is noted: cited from earlier work.
Data set [6] deals with aged fibroblasts (NB1RGB cells). The data set can be described thus: Collagen production in aged human fibroblasts (human collagen type I ELISA). It is filed as cell-based. To be noted: 100 μM, 24 hours, culture supernatant; control = 1.00. As to the method:
Aged fibroblasts were prepared. Normal human fibroblasts in the form of NB1RGB cells (purchased from the Bioresource Center of Riken Japan) were cultured to confluence in a culture flask, and after culturing for 1 hour in Dulbecco's Modified Eagle Medium (DMEM) manufactured by Sigma Corp. containing 600 μM aqueous hydrogen peroxide and 10% (w/v) fetal calf serum, the cells were washed with PBS and cultured for 24 hours after changing the medium to DMEM containing 10% (w/v) fetal calf serum. This procedure was repeated three times to obtain aged fibroblasts.
The resulting aged fibroblasts were seeded into a plastic Petri dish at a seeding density of about 10,000 cells/cm^2 and then cultured for 24 hours in Dulbecco's Modified Eagle Medium (DMEM) manufactured by Sigma Corp. containing 10% (w/v) fetal calf serum. Subsequently, orotic acid or an orotic acid derivative dissolved in purified water (Table 4) was added to the medium at a final concentration of 100 μmol/L followed by additionally culturing for 24 hours. The medium to which orotic acid or orotic acid derivative had not been added was used as a control.
The culture supernatant was recovered after culturing and collagen production was measured using a human collagen type I ELISA kit manufactured by Acel, Inc. 50 μL of culture supernatant of each sample were added to a microplate treated with collagen antibody provided with the kit. After shake culturing for 1 hour at room temperature, the plate was washed three times with the washing solution provided with the kit. 50 μL of horseradish peroxidase-avidin reagent provided with the kit were added thereto followed by shake culturing for 1 hour at room temperature. After again washing three times with the washing solution, 50 μL of the coloring solution provided with the kit were added followed by allowing to stand undisturbed for 15 minutes at room temperature and adding 50 μL aliquots of reaction stopping solution thereto. After mixing by shaking for 1 minute, absorbance was measured at 450 nm.

Data set [7] can be described thus: physchem. To be noted: 22 °C, thermodynamic from solid.
Method: as §3, §4, §5, §6
The mark [8] stands for this setting: 22 °C, pH 2.3, water, thermodynamic from solid.
[9] abbreviates: 22 °C, pH 4, aqueous buffer, thermodynamic from solid.

With `O=C(O)c1cc(=O)[nH]c(=O)[nH]1` [Orotic acid, reference compound], in data set [1] (0.5% (w/v) on skin surface), the “Cell Survival Rate (Relative Value)” value amounted to 1.1. The “Elastin Production (relative value)” value in data set [2] (100 μM) was found to be 1.12. In addition, in data set [3] (0.5% (w/v)), the “Melanin Production Rate (relative value)” value is given as 0.70. For the same molecule, the “Effect of inhibiting melanin production, statement in words” value in data set [3] (human three-dimensional skin equivalent) is reported as “superior effect of inhibiting melanin production”. Also, the Saturated concentration in data set [4] (pH 2.3, room temperature (22° C.±2° C.)) is reported as 0.08 % (w/v); in data set [4] (pH 4.6, room temperature (22° C.±2° C.)) it was 0.27 % (w/v); in data set [4] (pH 4.8, room temperature (22° C.±2° C.)), 0.26 % (w/v); in data set [4] (pH 5.8, room temperature (22° C.±2° C.)), 0.19 % (w/v); in data set [4] (pH 7.1, room temperature (22° C.±2° C.)), 0.16 % (w/v). The Solubility in alcohol result in data set [5] (alcohol such as ethanol) was “practically insoluble”. Also, the Solubility in water result in data set [5] (water) was “extremely insoluble”. In addition, in data set [6], the “Collagen Production (relative value)” value is recorded as 1.14.
`O=C(O)C[C@H](NC(=O)c1cc(=O)[nH]c(=O)[nH]1)C(=O)O` [Orotic acid-Asp]: the values for the thermodynamic solubility at 15 h in data set [4] (setting [8]) and in data set [4] (setting [9]) were 9.5 mg/mL (≈ 35 mM) and 98.2 mg/mL (≈ 362 mM), respectively. The same molecule had a solubility at 15 h in data set [4] (22 °C, pH 4.2, aqueous buffer, thermodynamic from solid) greater than 111 mg/mL.
Take `O=C(O)CC[C@H](NC(=O)c1cc(=O)[nH]c(=O)[nH]1)C(=O)O` [Orotic acid-Glu]: the “Cell Survival Rate (Relative Value)” value was 1.4 in data set [1] (0.2% (w/v) on skin surface), 1.2 in data set [1] (0.5% (w/v) on skin surface) and 0.9 in data set [1] (1% (w/v) on skin surface). In data set [1] (at the test concentrations 0.2%, 0.5%, 1.0% (w/v)), the “Cell survival rate, statement in words” value is on record as “no decreases in cell survival rates observed”. For the same molecule, the “Elastin Production (relative value)” value was determined as 1.20 in data set [2] (0.1 μM), 1.35 in data set [2] (1 μM), 1.24 in data set [2] (10 μM) and 1.24 in data set [2] (100 μM). The results for the “Melanin Production Rate (relative value)” value in data set [3] (0.2% (w/v)), in data set [3] (0.5% (w/v)) and in data set [3] (1% (w/v)) were 0.61, 0.71 and 0.50, respectively. Also, the solubility (thermodynamic) at 15 h in data set [4] (setting [8]) is 13 mg/mL (≈ 45.6 mM); in data set [4] (22 °C, pH 5.2, aqueous buffer, thermodynamic from solid), 54.3 mg/mL (≈ 190 mM). Moreover, the “Collagen Production (relative value)” value in data set [6] came to 1.53.
Regarding `O=C(O)CNC(=O)c1cc(=O)[nH]c(=O)[nH]1` [Orotic acid-Gly], the thermodynamic solubility at 15 h came out at 1.1 mg/mL (≈ 5.16 mM) in data set [4] (22 °C, pH 2.8, aqueous buffer, thermodynamic from solid); 3.2 mg/mL (≈ 15 mM) in data set [4] (22 °C, pH 3.6, aqueous buffer, thermodynamic from solid); 5.5 mg/mL (≈ 25.8 mM) in data set [4] (setting [9]); 16.6 mg/mL (≈ 77.9 mM) in data set [4] (22 °C, pH 4.5, aqueous buffer, thermodynamic from solid); 38.3 mg/mL (≈ 180 mM) in data set [4] (22 °C, pH 5.1, aqueous buffer, thermodynamic from solid); 66 mg/mL (≈ 310 mM) in data set [4] (22 °C, pH 6.1, aqueous buffer, thermodynamic from solid). Besides, the “Collagen Production (relative value)” value in data set [6] worked out at 1.23.
Consider `O=C(N[C@@H](Cc1c[nH]cn1)C(=O)O)c1cc(=O)[nH]c(=O)[nH]1` [Orotic acid-His], for which the solubility (thermodynamic) at 15 h in data set [7] (pH 4.9, aqueous buffer) came to 2.2 mg/mL (≈ 7.5 mM); in data set [7] (pH 7.2, aqueous buffer), 12.5 mg/mL (≈ 42.6 mM). Moreover, in data set [6], the “Collagen Production (relative value)” value is 1.23.

Values taken from patent US11045471B2, “Melanin production inhibitor, whitening agent, fibroblast activator, collagen and/or elastin production promotor and wrinkle ameliorant” (SHOWA DENKO K.K., priority 2016, dated 2021).
